{
  "source": "paper PMC11754779",
  "about": "“Mechanism of sensor kinase CitA transmembrane signaling” (Nature Communications, 2025)",
  "key": {"Gt CitA PASp domain (WT)": {"biological_target": "T1, Gt CitA PASp domain (WT) (Geobacillus thermodenitrificans, UniProt A4IPE6)", "T1 construct": "gene GTNG_1840; periplasmic (extracytoplasmic) PAS/PDC sensor domain; E. coli BL21(DE3); N-terminal His-tag removed with TEV protease", "T1 sequence (A4IPE6 entry or part of it)": "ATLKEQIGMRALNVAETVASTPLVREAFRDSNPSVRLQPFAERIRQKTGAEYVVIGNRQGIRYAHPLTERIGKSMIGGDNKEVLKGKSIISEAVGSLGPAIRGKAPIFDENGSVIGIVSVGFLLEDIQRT", "test": "X-ray crystallography, molecular replacement", "assay_type": "binding", "conditions": "1 mM sodium citrate added; crystallised from 1 M tri-sodium citrate, 0.1 M imidazole pH 9.0"}, "full length Gt CitA": {"biological_target": "T2, full length Gt CitA (Geobacillus thermodenitrificans, UniProt A4IPE6, C12A/R93A/N308C, form not given)", "T2 construct": "gene GTNG_1840; full length; vector pET16b, Ni-NTA purified, reconstituted in DMPC liposomes (C12A/R93A/N308C); pMW1652 in E. coli IMW549 for reporter assay", "T2 sequence (A4IPE6 entry or part of it C12A/R93A/N308C, form open)": "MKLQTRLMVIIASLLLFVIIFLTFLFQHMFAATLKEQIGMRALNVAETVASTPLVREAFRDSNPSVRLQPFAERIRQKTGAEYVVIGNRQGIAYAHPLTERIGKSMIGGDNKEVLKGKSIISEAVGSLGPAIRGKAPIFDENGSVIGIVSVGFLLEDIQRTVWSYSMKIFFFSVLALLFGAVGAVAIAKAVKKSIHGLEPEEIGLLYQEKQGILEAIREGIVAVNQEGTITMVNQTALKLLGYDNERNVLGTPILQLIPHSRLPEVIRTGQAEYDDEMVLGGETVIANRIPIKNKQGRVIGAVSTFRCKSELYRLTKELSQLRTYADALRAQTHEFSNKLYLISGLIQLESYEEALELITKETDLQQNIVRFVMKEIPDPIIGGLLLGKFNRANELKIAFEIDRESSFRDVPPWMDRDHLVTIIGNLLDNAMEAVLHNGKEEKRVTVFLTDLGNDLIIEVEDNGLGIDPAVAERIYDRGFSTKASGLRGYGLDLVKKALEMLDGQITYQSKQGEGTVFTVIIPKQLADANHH", "test": "[…] NMR ATP hydrolysis assay in DMPC liposomes", "assay_type": "biochemical", "conditions": "5 mM sodium citrate; 6 mM ATP, 10 mM MgCl2, pH 6.5, 37 C; untagged and CH2COCF3-tagged at N308C; activator"}, "[1]": {"biological_target": "T3, CitApc (C12A/R93A CitA1-309) (Geobacillus thermodenitrificans, UniProt A4IPE6, C12A/R93A)", "T3 construct": "gene GTNG_1840; residues 1-309 (PASp, TM helices, PASc; no kinase core); E. coli C43(DE3), Ni-NTA purified; reconstituted in DMPC/DMPA liposomes; dimer", "T3 sequence (A4IPE6 entry or part of it C12A/R93A)": "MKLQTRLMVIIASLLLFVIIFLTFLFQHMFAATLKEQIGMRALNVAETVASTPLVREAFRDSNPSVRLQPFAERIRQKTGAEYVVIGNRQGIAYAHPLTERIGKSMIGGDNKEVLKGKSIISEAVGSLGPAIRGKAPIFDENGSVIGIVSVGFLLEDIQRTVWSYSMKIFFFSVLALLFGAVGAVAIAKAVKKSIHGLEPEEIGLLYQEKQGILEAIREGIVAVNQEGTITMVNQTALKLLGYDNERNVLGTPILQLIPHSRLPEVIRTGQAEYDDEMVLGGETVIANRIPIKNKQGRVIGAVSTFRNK", "test": "1H-detected MAS solid-state NMR chemical shifts", "assay_type": "binding", "conditions": "5 mM sodium citrate, 20 mM sodium phosphate pH 6.5; DMPC/DMPA liposomes; 293 K"}, "[2]": {"biological_target": "T4, CitApc (C12A/R93A CitA1-309) (Geobacillus thermodenitrificans, UniProt A4IPE6, C12A/R93A/N308C)", "T4 construct": "gene GTNG_1840; residues 1-309 (PASp, TM helices, PASc; no kinase core); E. coli C43(DE3), Ni-NTA purified; reconstituted in DMPC/DMPA liposomes; dimer", "T4 sequence (A4IPE6 entry or part of it C12A/R93A/N308C)": "as the sequence (A4IPE6 entry or part of it C12A/R93A) above, with N308C counted along it", "test": "[…] CODEX with DNP, inter-dimer distance change", "assay_type": "binding", "conditions": "CH2COCF3-tagged at N308C; liposomes; 90 K"}, "[3]": {"biological_target": "wild-type cytosolic PAS domain (PASc) of Geobacillus thermodenitrificans CitA (Geobacillus thermodenitrificans)", "test": "SEC; size exclusion column, down to a concentration of 1 μM (Supplementary Fig. 8)"}, "[4]": {"biological_target": "N288D mutant of the cytosolic PAS domain (PASc) of Geobacillus thermodenitrificans CitA (Geobacillus thermodenitrificans)", "test": "SEC; size exclusion column, down to a concentration of 1 μM (Supplementary Fig. 8)"}},
  "data": [
    {"compound": "O=C(O)CC(O)(CC(=O)O)C(=O)O", "note": "[citrate]", "values": [
      {"measurement": "X-ray crystallography, molecular replacement", "setting": "Gt CitA PASp domain (WT)", "value": "Superposition of the citrate-bound Gt PASp domain structure (PDB: 8BGB"},
      {"measurement": "31P NMR ATP hydrolysis assay in DMPC liposomes", "setting": "full length Gt CitA", "value": "Upon citrate binding, a threefold increase in CitA’s ATP hydrolysis rate was observed"},
      {"measurement": "1H-detected MAS solid-state NMR chemical shifts", "setting": "[1]", "value": "also indicate changes in secondary structure upon addition of citrate"},
      {"measurement": "19F CODEX with DNP, inter-dimer distance change", "setting": "[2]", "value": "A decay in the CODEX signal to half of the reference signal was observed when citrate was bound"}
    ]},
    {"compound": "wild-type cytosolic PAS domain (PASc) of Geobacillus thermodenitrificans CitA (domain or fragment)", "values": [
      {"measurement": "stoichiometry N", "setting": "[3]", "value": 2}
    ]},
    {"compound": "N288D mutant of the cytosolic PAS domain (PASc) of Geobacillus thermodenitrificans CitA (domain or fragment)", "values": [
      {"measurement": "stoichiometry N", "setting": "[4]", "value": 2}
    ]}
  ]
}
